Where “and” joins values, the source holds several entries; their conditions need not be identical. Equal entries are not always repeated.
Experiments:
[1] = tested on: ycf1-pESC yeast, wt-pESC yeast, ycf1-YCF1 yeast; assay: Heavy metal content of recombinant yeasts by atomic absorption spectrometer; format: cell-based, Saccharomyces cerevisiae; details: one day
Description: Three kinds of yeasts (ycf1-pESC yeast, wt-pESC yeast, and ycf1-YCF1 yeast) were each cultured in 1/2 galactose solid media containing 1.5 mM lead or 15 uM cadmium for one day, and the cultured yeasts were scraped for harvest. The harvested yeasts were put into 1 ml of concentrated nitric acid, digested for 200° C. for about 6 hours, and then diluted with 10 ml of 0.5 N nitric acid, and the amount of heavy metals contained in the yeasts was measured using an atomic absorption spectrometer (AAS). The measurement results for ycf1-pESC yeast, wt-pESC yeast, and ycf1-YCF1 yeast are represented by graph In FIG. 3.

YCF1 Arabidopsis plants = assay: Accumulation of heavy metals in transformed Arabidopsis plants; format: in vivo, Arabidopsis thaliana; details: three weeks
Description: YCF1 Arabidopsis plants obtained in Example 5 and wild-type Arabidopsis transformed with empty vector, PBI, were cultivated in 1/2 MS media containing lead (0.75 mM) and cadmium (70 μM) for three weeks to investigate accumulation of heavy metals.

Arabidopsis plants = assay: Growth of Arabidopsis plants in the presence of noxious materials; format: in vivo, Arabidopsis thaliana; details: 60 μM pentavalent arsenic three weeks, 60 μM CDNB two months
yeast = assay: Growth of yeast on lead or cadmium-containing media; format: cell-based, Saccharomyces cerevisiae; details: for Growth of ycf1-YCF1 yeast in media containing lead or cadmium: 1.8 mM lead or 50 uM cadmium, galactose media; for Growth of ycf1 mutant yeast as compared with wild-type yeast: 3 mM lead or 0.1 mM cadmium, three days
Description: Wild-type yeast (DTY 165) and ycf1 mutant yeast (DTY 167, MATa ura3 leu2 his3 trp3 lys2 suc2 ycf::hisG) were cultured in YPD liquid media (1% yeast extract, 2% peptone, 2% dextrose) at 30° C. until OD600 reached 1-2, and then yeast cells of the same number (1×10^2, 1×10^3, 1×10^4 or 1×10^5) were cultured in half-diluted YPD solid media containing 3 mM lead at 30° C. for three days. Likewise, they were also cultured in half-diluted YPD solid media containing 0.1 mM cadmium.
The ycf1-pESC yeast, wt-pESC yeast, and ycf1-YCF1 yeast 25 constructed above were each cultured in galactose media (2% galactose, 1% of 0.17% YNB, 0.13% dropout powder, 0.5% ammonium sulfate) to which 1.8 mM lead was added, or in galactose media to which 50 uM of cadmium was added. Control group was cultured in galactose media without heavy metals. Growth degree of each of the recombinant ycf1-pESC yeast, wt-pESC yeast, and ycf1-YCF1 yeast in lead or cadmium-containing media is shown in the photographs of FIG. 2.
Resistance to lead in wt-v yeast, yhl035c-v yeast, and YHL035C yeast was tested according to methods substantially similar to the above Example 3-2.

poplar = assay: Growth of poplar plants in the presence of lead; format: in vivo, Populus alba ×P. glandulosa
Description: The leaf fragments and stalks of YCF1 poplar plants prepared in Example 5 were mounted on callus-inducible media containing 500 ppm of lead, and cultivated for two weeks to Investigate the difference In their growth. As a control, wild-type poplar plants, which were not transformed, were treated in the same manner, and the results of the experiments are shown in FIG. 10.
YHL035C transformed poplar plants prepared in Example 5 were transferred to a pot and allowed to grow into pot seedlings. These pot seedlings were transferred to soil that was dipped into a solution containing 500 ppm of […].

[2] = tested on: vacuoles of wild-type plants; assay: Accumulation of GS-associated compounds in vacuoles separated from wild-type Arabidopsis
Description: (§1) To Investigate that these phenomena occurred due to the fact that YCF1 proteins transport heavy metals into vacuoles, the vacuoles were separated from YCF1 transformed plants and wild-type plants, and experiments of transporting cadmium and herbicides were carried out.

[3] = tested on: vacuoles of YCF1 transformed plants; assay: Accumulation of GS-associated compounds in vacuoles separated from YCF1 transformed Arabidopsis
Description: as §1

[4] = YCF1 transformed vacuoles, +MgATP

[Pb] [lead]
Accumulation of lead in wt-pESC yeast and ycf1-YCF1 yeast relative to ycf1-pESC yeast ([1]; 1.5 mM lead): ~2 fold
Accumulation of lead in YCF1 Arabidopsis plants relative to PBI (YCF1 Arabidopsis plants; 0.75 mM lead): 2 fold and 1.4 fold
Growth of YCF1 Arabidopsis (Arabidopsis plants; lead three weeks): less chlorosis In leaves and better growth of roots
Sensitivity of yhl035c-v yeast (yeast; 1.8 mM lead): more sensitive than wt-v yeast
Growth of ycf1-YCF1 yeast in media containing lead or cadmium (yeast): grew better than ycf1-pESC yeast or wt-pESC yeast
Growth of ycf1 mutant yeast as compared with wild-type yeast (yeast): decreased
Growth in stalk pieces of YCF1 poplar relative to wild-type (poplar; 500 ppm of lead, two weeks): ~2 fold
Growth of YHL035C transformant poplar in soil containing lead (poplar; 500 ppm, four weeks): grew much better than the wild-type
Growth of wild-type poplar in soil containing lead (poplar; 500 ppm, four weeks): grew poorly

N[C@@H](CCC(=O)N[C@@H](CSc1ccc([N+](=O)[O-])cc1[N+](=O)[O-])C(=O)NCC(=O)O)C(=O)O [DNB − GS]
Accumulation in the vacuoles, Wild-type Plants, +MgATP [2]: 28 ± 1.3 pmol/1 ul vacuole/20 min
Accumulation in the vacuoles, Wild-type Plants, −MgATP ([2]; −MgATP): 21 ± 1.1 pmol/1 ul vacuole/20 min
Accumulation in YCF1 transformants relative to wild-type (in words) ([3]; +MgATP): a little higher accumulation than wild-type
Accumulation in the vacuoles, YCF1 Transformed Plants, +MgATP [3, 4]: 33 ± 1.2 pmol/1 ul vacuole/20 min
Accumulation in the vacuoles, YCF1 Transformed Plants, −MgATP ([3]; YCF1 transformed vacuoles, −MgATP): 24 ± 0.9 pmol/1 ul vacuole/20 min

[Cd] [cadmium]
Accumulation of cadmium in wt-pESC yeast and ycf1-YCF1 yeast compared with ycf1-pESC yeast ([1]; 15 uM cadmium): high accumulation
Accumulation of cadmium in YCF1 Arabidopsis plants relative to PBI (YCF1 Arabidopsis plants; 70 μM cadmium): 2 fold and 3 fold
Growth of wild-type Arabidopsis (Arabidopsis plants; cadmium various concentrations): more chlorosis in leaves
Growth of ycf1-YCF1 yeast in media containing lead or cadmium (yeast): grew better than ycf1-pESC yeast or wt-pESC yeast
Growth of ycf1 mutant yeast as compared with wild-type yeast (yeast): grew little

N[C@@H](CCC(=O)N[C@@H](CS)C(=O)NCC(=O)O)C(=O)O [GSH]
Accumulation in the vacuoles, Wild-type Plants, +MgATP [2]: 70 ± 2.2 pmol/1 ul vacuole/20 min
Accumulation in the vacuoles, YCF1 Transformed Plants, +MgATP [3, 4]: 69 ± 1.1 pmol/1 ul vacuole/20 min

— US7358417B2, “Transgenic organism expressing fungal MRP-like ABC transporters” (priority 2001, dated 2008)
